Converted amounts (≈) assume the structure as drawn.
Experiments:
human glucagon receptor = target: T1, human glucagon receptor (Homo sapiens, UniProt P47871); test: Glucagon functional assay: agonist activity by cAMP production (HTRF) in transfected CHO cells; assay type: cell-based; conditions: cAMP production, transfected CHO cells, 10 minutes at 37° C.
T1 construct: expressed in transfected cells; host or cells: CHO cells
Description: Functional Assay to Examine Bioactivity of Glucagon Receptor Agonists. Evaluation of the agonist activity of compounds at the human glucagon receptor expressed in transfected CHO cells was examined by measuring their effects on cAMP production using the HTRF detection method. […] For stimulated control measurement, separate assay wells contain 100 nM glucagon were utilized.
Following incubation, the cells were lysed and the fluorescence acceptor (D2-labeled cAMP) and fluorescence donor (anti-cAMP antibody labeled with europium cryptate) were added. […] The results are expressed as a percent of the control response to 100 nM glucagon. The standard reference agonist is glucagon, which was tested in each experiment at several concentrations to generate a concentration-response curve from which its EC50 value was calculated.
HTRF (Homogeneous Time-Resolved Fluorescence) principle. The HTRF technology is based on time resolved fluorescence energy transfer (TR-FRET), which occurs between long-lived fluorophore Europium or Terbium Cryptates, and EuK or Tb respectively, as a donor and the allophycocyanin XL665, d2 or Red as acceptor. Many compounds and proteins present in biological fluids or serum are naturally fluorescent, and the use of conventional, prompt fluorescence leads to serious limitations in assay sensitivity. The use of long-lived fluorophore combined with time-resolved detection (a delay between excitation and emission detection) minimizes prompt fluorescence interference.

[1] = Solubility of glucagon analogs (UV absorbance); assay type: physicochemical; conditions: for solubility: 0.01M HCl solution adjusted to pH 7 with Na2HPO4, pH 7, pH adjusted to 7 with Na2HPO4, incubated overnight at 4° C.; for ratio (solubility relative to reference compound 16): relative to compound 16;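 as to all read-outs here: peptide stock at 3 mg/ml in 0.01 M HCl, absorbance at 280 nm read before neutralization and again on the diluted supernatant after centrifugation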
Description: A solution of 3 mg/ml of glucagon (or analog) was prepared in a 0.01M HCl solution. Then 0.1 ml of the stock solution was diluted to 1 ml with HCl (0.01M) and the UV absorbance measured (to 280 nm) with nanodrop UV spectrometer. The pH of the remaining stock solution was adjusted to 7 using Na2HPO4, and the solution was incubated overnight at 4° C. The solution was then centrifuged three times (5 minutes, 4000 rotations per minute), 0.1 ml of the supernatant was removed and diluted to 1 ml with HCl solution (0.01M).
The final UV absorbance was measured.

T1 sequence (P47871 26-477): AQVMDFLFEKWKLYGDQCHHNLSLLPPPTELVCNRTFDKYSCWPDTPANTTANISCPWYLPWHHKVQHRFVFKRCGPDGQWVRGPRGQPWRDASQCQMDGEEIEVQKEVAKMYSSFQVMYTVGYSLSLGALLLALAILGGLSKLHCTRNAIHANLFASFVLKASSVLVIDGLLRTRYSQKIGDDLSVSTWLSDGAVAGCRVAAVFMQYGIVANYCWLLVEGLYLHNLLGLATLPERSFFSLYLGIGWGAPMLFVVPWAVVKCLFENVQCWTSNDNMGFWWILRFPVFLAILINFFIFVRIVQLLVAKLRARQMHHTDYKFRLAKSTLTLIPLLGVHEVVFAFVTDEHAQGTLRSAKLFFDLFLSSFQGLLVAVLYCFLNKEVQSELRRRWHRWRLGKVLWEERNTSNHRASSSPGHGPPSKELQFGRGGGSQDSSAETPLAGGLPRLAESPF

SMILES: CCCC[C@H](NC(=O)[C@H](CC(C)C)NC(=O)[C@H](Cc1c[nH]c2ccccc12)NC(=O)[C@H](CCC(N)=O)NC(=O)[C@@H](NC(=O)[C@H](Cc1ccccc1)NC(=O)NC[C@H](CC(=O)O)NC(=O)[C@H](CCC(N)=O)NC(=O)[C@H](C)NC(=O)[C@H](CCCNC(=N)N)NC(=O)[C@H](CCCNC(=N)N)NC(=O)[C@H](CO)NC(=O)[C@H](CC(=O)O)NC(=O)[C@H](CC(C)C)NC(=O)[C@H](Cc1ccc(O)cc1)NC(=O)[C@H](CCCCN)NC(=O)[C@H](CO)NC(=O)[C@H](Cc1ccc(O)cc1)NC(=O)[C@H](CC(=O)O)NC(=O)[C@H](CO)NC(=O)[C@@H](NC(=O)[C@H](Cc1ccccc1)NC(=O)[C@@H](NC(=O)CNC(=O)[C@H](CCC(N)=O)NC(=O)[C@H](CO)NC(=O)[C@@H](N)Cc1c[nH]cn1)[C@@H](C)O)[C@@H](C)O)C(C)C)C(=O)N[C@@H](CC(N)=O)C(=O)N[C@H](C(=O)O)[C@@H](C)O [Compound 61]
- EC50 (human glucagon receptor): 0.1 nM
- solubility [1]: 740 µg/mL (≈ 212 µM)
- ratio (solubility relative to reference compound 16) [1]: 2.9

SMILES: CCCC[C@H](NC(=O)[C@H](CC(C)C)NC(=O)[C@H](Cc1c[nH]c2ccccc12)NC(=O)[C@H](CCC(N)=O)NC(=O)[C@@H](NC(=O)NC[C@H](Cc1ccccc1)NC(=O)[C@H](CC(=O)O)NC(=O)[C@H](CCC(N)=O)NC(=O)[C@H](C)NC(=O)[C@H](CCCNC(=N)N)NC(=O)[C@H](CCCNC(=N)N)NC(=O)[C@H](CO)NC(=O)[C@H](CC(=O)O)NC(=O)[C@H](CC(C)C)NC(=O)[C@H](Cc1ccc(O)cc1)NC(=O)[C@H](CCCCN)NC(=O)[C@H](CO)NC(=O)[C@H](Cc1ccc(O)cc1)NC(=O)[C@H](CC(=O)O)NC(=O)[C@H](CO)NC(=O)[C@@H](NC(=O)[C@H](Cc1ccccc1)NC(=O)[C@@H](NC(=O)CNC(=O)[C@H](CCC(N)=O)NC(=O)[C@H](CO)NC(=O)[C@@H](N)Cc1c[nH]cn1)[C@@H](C)O)[C@@H](C)O)C(C)C)C(=O)N[C@@H](CC(N)=O)C(=O)N[C@H](C(=O)O)[C@@H](C)O [Compound 62]
- EC50 (human glucagon receptor): 53 nM
- solubility [1]: 680 µg/mL (≈ 195 µM)
- ratio (solubility relative to reference compound 16) [1]: 2.7

SMILES: CCCC[C@H](NC(=O)[C@H](CC(C)C)NC(=O)[C@H](Cc1c[nH]c2ccccc12)NC(=O)[C@H](CCC(N)=O)NC(=O)NC[C@@H](NC(=O)[C@H](Cc1ccccc1)NC(=O)[C@H](CC(=O)O)NC(=O)[C@H](CCC(N)=O)NC(=O)[C@H](C)NC(=O)[C@H](CCCNC(=N)N)NC(=O)[C@H](CCCNC(=N)N)NC(=O)[C@H](CO)NC(=O)[C@H](CC(=O)O)NC(=O)[C@H](CC(C)C)NC(=O)[C@H](Cc1ccc(O)cc1)NC(=O)[C@H](CCCCN)NC(=O)[C@H](CO)NC(=O)[C@H](Cc1ccc(O)cc1)NC(=O)[C@H](CC(=O)O)NC(=O)[C@H](CO)NC(=O)[C@@H](NC(=O)[C@H](Cc1ccccc1)NC(=O)[C@@H](NC(=O)CNC(=O)[C@H](CCC(N)=O)NC(=O)[C@H](CO)NC(=O)[C@@H](N)Cc1c[nH]cn1)[C@@H](C)O)[C@@H](C)O)C(C)C)C(=O)N[C@@H](CC(N)=O)C(=O)N[C@H](C(=O)O)[C@@H](C)O [Compound 63]
- EC50 (human glucagon receptor): 30 nM
- solubility [1]: 1280 µg/mL (≈ 366 µM)
- ratio (solubility relative to reference compound 16) [1]: 5.1

SMILES: CCCC[C@H](NC(=O)[C@H](CC(C)C)NC(=O)[C@H](Cc1c[nH]c2ccccc12)NC(=O)NC[C@H](CCC(N)=O)NC(=O)[C@@H](NC(=O)[C@H](Cc1ccccc1)NC(=O)[C@H](CC(=O)O)NC(=O)[C@H](CCC(N)=O)NC(=O)[C@H](C)NC(=O)[C@H](CCCNC(=N)N)NC(=O)[C@H](CCCNC(=N)N)NC(=O)[C@H](CO)NC(=O)[C@H](CC(=O)O)NC(=O)[C@H](CC(C)C)NC(=O)[C@H](Cc1ccc(O)cc1)NC(=O)[C@H](CCCCN)NC(=O)[C@H](CO)NC(=O)[C@H](Cc1ccc(O)cc1)NC(=O)[C@H](CC(=O)O)NC(=O)[C@H](CO)NC(=O)[C@@H](NC(=O)[C@H](Cc1ccccc1)NC(=O)[C@@H](NC(=O)CNC(=O)[C@H](CCC(N)=O)NC(=O)[C@H](CO)NC(=O)[C@@H](N)Cc1c[nH]cn1)[C@@H](C)O)[C@@H](C)O)C(C)C)C(=O)N[C@@H](CC(N)=O)C(=O)N[C@H](C(=O)O)[C@@H](C)O [Compound 64]
- EC50 (human glucagon receptor): 0.16 nM
- solubility [1]: 940 µg/mL (≈ 269 µM)
- ratio (solubility relative to reference compound 16) [1]: 3.7

SMILES: CCCC[C@H](NC(=O)[C@H](CC(C)C)NC(=O)NC[C@H](Cc1c[nH]c2ccccc12)NC(=O)[C@H](CCC(N)=O)NC(=O)[C@@H](NC(=O)[C@H](Cc1ccccc1)NC(=O)[C@H](CC(=O)O)NC(=O)[C@H](CCC(N)=O)NC(=O)[C@H](C)NC(=O)[C@H](CCCNC(=N)N)NC(=O)[C@H](CCCNC(=N)N)NC(=O)[C@H](CO)NC(=O)[C@H](CC(=O)O)NC(=O)[C@H](CC(C)C)NC(=O)[C@H](Cc1ccc(O)cc1)NC(=O)[C@H](CCCCN)NC(=O)[C@H](CO)NC(=O)[C@H](Cc1ccc(O)cc1)NC(=O)[C@H](CC(=O)O)NC(=O)[C@H](CO)NC(=O)[C@@H](NC(=O)[C@H](Cc1ccccc1)NC(=O)[C@@H](NC(=O)CNC(=O)[C@H](CCC(N)=O)NC(=O)[C@H](CO)NC(=O)[C@@H](N)Cc1c[nH]cn1)[C@@H](C)O)[C@@H](C)O)C(C)C)C(=O)N[C@@H](CC(N)=O)C(=O)N[C@H](C(=O)O)[C@@H](C)O [Compound 65]
- EC50 (human glucagon receptor): 1.5 nM
- solubility [1]: 850 µg/mL (≈ 243 µM)
- ratio (solubility relative to reference compound 16) [1]: 3.4

Source: patent publication US11267861B2, “Peptide-oligourea foldamer compounds and methods of their use” (UREKA SARL, priority 2016, dated 2022)
